{"source": "patent US11129909B2", "about": "“Conjugate and block copolymer containing fluorescent chromophore and preparation method therefor and use thereof” (priority 2017, dated 2021)", "key": {"[1]": {"system": "HT29 cells (normal CEA and normal NQO1)", "test": "CLSM detection of intracellular CEA and quinone oxidoreductase, HT29 cells", "type": "cell-based", "conditions": "HT29 cells co-cultured with conjugate", "source_text": "(§1) Viable HepG2 cells (lacking CEA and NQO1), LS180 cells (normal CEA and lacking NQO1) and HT29 cells (normal CEA and normal NQO1) were co-cultured with QNAM-C1-ACEA antibody-probe conjugate."}, "[2]": {"system": "LS180 cells (normal CEA and lacking NQO1)", "test": "CLSM detection of intracellular CEA and quinone oxidoreductase, LS180 cells", "type": "cell-based", "conditions": "LS180 cells co-cultured with conjugate", "source_text": "as §1"}, "[3]": {"system": "HepG2 cells (lacking CEA and NQO1)", "test": "CLSM detection of intracellular CEA and quinone oxidoreductase, HepG2 cells", "type": "cell-based", "conditions": "HepG2 cells co-cultured with conjugate", "source_text": "as §1"}, "NQO1": {"molecular_target": "NQO1 (Homo sapiens, UniProt P15559)", "sequence (P15559 whole entry, species assumed)": "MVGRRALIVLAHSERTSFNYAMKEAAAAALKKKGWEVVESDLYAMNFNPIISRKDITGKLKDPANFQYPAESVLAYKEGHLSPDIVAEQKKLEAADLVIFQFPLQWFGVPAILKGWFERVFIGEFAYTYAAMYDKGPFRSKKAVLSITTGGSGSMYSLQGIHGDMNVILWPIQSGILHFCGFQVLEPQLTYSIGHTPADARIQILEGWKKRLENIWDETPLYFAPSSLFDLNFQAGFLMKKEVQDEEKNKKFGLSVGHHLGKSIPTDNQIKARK", "test": "Enzyme detection by antibody-probe conjugate: fluorescence/FRET change with NADPH/NQO1", "type": "biochemical", "conditions": "NADPH/NQO1 in water system, culture time of about 1 h; NAM emission 530 nm vs C1 emission 435 nm", "procedure": "In a culture time of about 1 h, a change of about 20 times the FRET ratio (intensity ratio of two emission peaks) can be seen (see inset). The above results indicated the occurrence of an efficient FRET process between the C1 coumarin linkage bond and the enzymatic-produced NAM residue."}}, "data": [{"smiles": "COC(=O)CC(SC)C(=O)Nc1cc2ccc(-c3cn(CCN4C(=O)c5cccc6c(NC(=O)CC(C)(C)C7=C(C)C(=O)C(C)=C(C)C7=O)ccc(c56)C4=O)nn3)cc2oc1=O", "note": "(stereo not shown) [QNAM-C1-ACEA]", "values": [{"measurement": "CLSM emission of C1 coumarin (blue) and NAM (green) in cells", "setting": "[1]", "value": "green channel NAM emission was obviously enhanced"}, {"measurement": "CLSM emission of C1 coumarin (blue) and NAM (green) in cells", "setting": "[2]", "value": "intermittent blue luminous points of C1 coumarin and few NAM green emission signals"}, {"measurement": "CLSM emission of C1 coumarin (blue) and NAM (green) in cells", "setting": "[3]", "value": "very low blue and green emission"}, {"measurement": "change of the FRET ratio (intensity ratio of two emission peaks)", "setting": "NQO1", "value": "about 20 times"}]}]}
